According to patent publication US9795570B2, “Modulation of macrophage phenotype by emodin” (University of South Carolina, priority 2016, dated 2017):

Assays:
[1] = tested on: EO771 tumors; experiment: EO771 breast tumor model in C57BL/6 mice; assay type: in vivo
Protocol: C57BL/6 and BALB/c mice (8-12 weeks, female) were purchased from Jackson Labs (Bar Harbor, Me.). They were housed at the University of South Carolina Animal Research Facility, and all procedures were approved by the Institutional Animal Care and Use Committee. EO771 or 4T1 cells (2×10^5) in 20 μL of PBS were injected into the 4th pair of mammary glands on C57BL/6 mice or BALB/C, respectively, on Day 0. Starting on Day 1, emodin (40 mg/kg) or vehicle (2% DMSO) was injected intraperitoneally in 1 ml PBS once daily. The tumor size was measured using a caliper every 2-4 days, and the tumor volume was calculated using a formula: V (mm^3)=L (major axis)×W^2 (minor axis)/2. Mice were sacrificed at various time points.
At sacrifice, tumors were embedded in OCT. They were then cut into 8 μm thick frozen sections and placed on slides. For immunohistochemistry staining, the sections were fixed with 4% paraformaldehyde for 10 min, and then blocked with 0.01 M glycine containing 0.1% Triton x-100. Next, the sections were blocked with 5% BSA. They were then incubated in primary antibody overnight at 4° C.: anti-F4/80 (1:50, Biolegend), anti-pSTAT6 (1:50, Cell Signaling), or anti-C/EBPβ (1:50, Santa Cruz). The sections were washed with PBS and then incubated with secondary antibodies for 1 h at room temperature. The sections were then stained with DAPI (1 μg/mL) and coverslipped with DABCO. Slides were imaged using a Zeiss LSM 510 Confocal microscope (Zeiss, Peabody, Mass.). For quantitative analysis, the number of positive cells was manually counted in six random fields of view per section. CD31 staining was performed according to standard methodology. Slides were imaged on a Nikon ECLIPSE E600 microscope (Nikon, Melville, N.Y.) at 200× magnification (10 fields per section). The integrated optical density (IOD) of CD31 was quantified using Image-Pro Plus software.
Macrophages or T cells were isolated from 4T1 tumors from mice sacrificed at 6 weeks post implantation or from EO771 tumors 5 weeks post implantation, using EasySep™ Mouse PE Positive Selection Kit (Stem Cell Technologies, Vancouver, BC). For cell isolation, 1×10^7-1×10^8 cells were incubated with 20 μL PE conjugated anti-F4/80 (Biolegend) for macrophages or 20 μL PE conjugated anti-CD3 for T cells and 50 μL microbeads. The T cells and macrophages were lysed in Qiazol and used for RT-PCR analysis. For ChIP assays, 5-10×10^6 macrophages were fixed in 1% formaldehyde.

[2] = tested on: mouse peritoneal macrophages; experiment: NO production assay; assay type: cell-based; details: LPS/IFNγ 24 h, emodin 0-50 μM
Protocol: Macrophages were stimulated with LPS+IFNγ for 24 h with various concentrations of emodin (0-50 μM). The culture media was then collected and the NO content was detected using a Nitrite/Nitrate colormetric kit (Sigma-Aldrich) according to the manufacturer's instructions. The assay was read using a Spectramax M5 microplate reader (Molecular Devices, Sunnyvale, Calif.).

[3] = tested on: mouse peritoneal macrophages; experiment: Phagocytosis assay (FITC-labeled E. coli bioparticles); assay type: cell-based
Protocol: Macrophages were seeded into a 96-well plate (2×10^5 cells/well) and were stimulated with IL4 or LPS+IFNγ for 24 h with or without emodin. Phagocytotic activity was measured using a Vybrant Phagocytosis assay kit (Molecular Probes). The medium was removed and the cells were washed with PBS. The fluorescent BioParticle suspension was added to the cells and incubated up to 6 h. After the indicated time, the BioParticle suspension was removed, any extracellular fluorescence was quenched with trypan blue, and the intracellular fluorescence was detected using a Spectramax M5 microplate reader (Molecular Devices, Sunnyvale, Calif.).

[4] = tested on: 4T1 cells; experiment: Macrophage migration toward conditioned medium of emodin-treated tumor cells; assay type: cell-based, mouse; details: increasing concentrations of emodin, 24 h treatment
Protocol: EO771 or 4T1 cells were treated with 0-50 μM emodin for 24 h. The cells were then washed multiple times with PBS, further cultured, and TCM was collected. The TCM was placed in the bottom chamber of transwell inserts, and 2×10^5 macrophages were seeded into the top chamber in SF DMEM. The cells were incubated at 37° C. with 5% CO2 for 4 h. The membranes were then fixed with 4% paraformaldehyde for 10 min. The cells were removed from the top chamber using cotton swabs, and the cells on the bottom chamber were stained with DAPI (1 μg/mL). The inserts were then cut out, mounted onto slides, and imaged under a Nikon Eclipse E-600 fluorescence microscope (Nikon Inc. Melville, N.Y.) at 20× magnification (5 fields/insert). DAPI stained cells were quantified using ImagePro Plus software.

[5] = tested on: peritoneal macrophages and 4T1 cells; experiment: Tumor cell-macrophage adhesion; assay type: cell-based, mouse
Protocol: Tumor cell monolayers (80-90% confluent) and macrophages were treated with emodin (0-25 μM) overnight. The cells were then washed multiple times with PBS, and fresh SF DMEM was added. Macrophages were resuspended with scraping and 5×10^5 cells were seeded onto the tumor cell monolayers. After 1 h the non-adherent cells were washed away, and the adherent cells were resuspened with Trypsin and mild scraping. The total number of cells was counted, and cells were stained with anti-F4/80 FITC (Biolegend). The cells were analyzed on a Beckman Coulter FC500.

[6] = tested on: T cells co-cultured with TCM treated macrophages; experiment: Macrophage - T cell co-culture (activation and proliferation); assay type: cell-based, mouse
Protocol: Peritoneal macrophages were seeded into 10 cm plates and treated with EO771 conditioned medium with or without emodin for 24 h. The cells were then washed with PBS and resuspended. T cells were isolated from the spleens of C57BL/6 mice using EasySep T cell isolation kit (Stem Cell Technologies) according to the manufacturer's instructions. For the proliferation assay, T cells were labeled with CSFE and then mixed with macrophages and CD3/CD28 DYNA beads in a 1:1:1 ratio and added to 12 well plates in triplicate. For the activation assay, the T cells were collected after 24 h and stained with anti-CD3, anti-CD4, and anti-CD69 for 30 min at 4° C. The cells were then analyzed on a BD FACS flow cytometer. For the proliferation assay, T cells were collected after 72 h and stained with anti-CD3 and anti-CD4. The cells were analyzed for CSFE depletion on a Beckman Coulter FC500.

[7] = 40 mg/kg IP once daily from Day 1

**Q.** How did the primary tumor growth [1, 7] turn out when `Cc1cc(O)c2c(c1)C(=O)c1cc(O)cc(O)c1C2=O` [emodin] was run?
**A.** significant inhibition

**Q.** And the “tumor weight at the endpoint” value [1, 7]?
**A.** significant inhibition

**Q.** And the “M1 marker (iNOS) expression in TAMs” value ([1]; F4/80+ cells from tumors, qPCR)?
**A.** significantly higher

**Q.** And the “M2 marker (Arg1 and CD206) expression in TAMs” value ([1]; F4/80+ cells from tumors, qPCR)?
**A.** significantly lower

**Q.** What about the “reduction of the number of tumor infiltrating macrophages (F4/80)” value ([1]; experimental endpoint, 40 mg/kg IP) of the same compound?
**A.** 70%

**Q.** And the “CD31 staining in tumors, relative to control” value ([1]; microvessel density, 5 weeks post injection)?
**A.** ~50%

**Q.** What about the “expression of inflammatory cytokines IL1β and TNFα in TAMs” value ([1]; qPCR, without statistical significance) of the same compound?
**A.** higher expression levels

**Q.** What about the NO production [2] of the same compound?
**A.** dose dependently inhibited

**Q.** And the “inhibition of bioparticle uptake” value ([3]; IL4 or LPS/IFNγ stimulated macrophages, emodin 50 μM 24 h)?
**A.** ~2 fold

**Q.** And the “phagocytic activity of naïve cells” value ([3]; emodin alone, 6 h time point)?
**A.** increase phagocytic activity

**Q.** And the “macrophage migration toward TCM from emodin-treated tumor cells” value [4]?
**A.** decrease in macrophage migration

**Q.** And the “adhesion of macrophages to a monolayer of tumor cells” value ([5]; emodin treatment of both macrophages and tumor cells)?
**A.** decreased the adhesion even further

**Q.** And the “adhesion of macrophages to a monolayer of tumor cells” value ([5]; emodin treatment of either macrophages or tumor cells)?
**A.** significantly inhibited

**Q.** What about the “T cell proliferation (CSFE depletion)” value ([6]; TCM and emodin co-treated macrophages, 72 h) of the same compound?
**A.** restored T cell proliferation

**Q.** And the “suppression of T cell activation (CD69 on CD4 T cells) by TCM treated macrophages” value ([6]; macrophages pre-treated with emodin along with TCM 24 h, co-culture 24 h)?
**A.** completely blocked the suppression
